Measured values: patent publication US12485078B2, “Personal dental care product for caries treatment” (Credentis AG, priority 2016, dated 2025)
No end group written: not given here.

Experiments:
[1] = self-assembling kinetic by quartz crystal microbalance with dissipation monitoring (QCM-D, FIG. 7); format: physicochemical; details: 10 mg/ml P11-4 in PBS pH 8.5 on P11-4 coated amine-coupling sensor
Protocol: P11-4 peptide was layered on the surface of the amine-coupling sensor at 1 mg/ml in PBS at pH8.5. After 1 hour and 1 hour 25 minutes, the sensor was washed with PBS pH 8.5. After 1 hour and 38 minutes, 10 mg/ml P11-4 peptide in PBS pH 8.5 were injected. After 2 hours, 0.1 M HCl were injected to induce self-assembly.
It can be seen that essentially complete self-assembly has occurred about 30 min after injection of 0.1 M HCl. Resonance frequency F (left scale, Hz) and energy dissipation factor D (right scale), triangle=frequency, square=dissipation are shown.

[2] = Penetration of P11-4 (200 ppm, spiked with 10 ppm ATTO647-P11-4, 25 mM TRIS) into artificial subsurface lesions, confocal microscopy; set-up: species or system human
Protocol: Creation of artificial lesions on extracted human molar teeth was performed as described by Lo et al. 2010 (J Dent. 38(4):352-359). To define the position of the demineralized subsurface area (i.e., artificial carious lesion or white spot), the tooth was covered with colourless nail varnish, leaving a window of approximately 4×4 mm. The tooth was placed in demineralization buffer (2.2 mM CaCl2, 2.2 mM NaH2PO4, 50 mM acetic acid; pH adjusted with 1 M KOH to 4.4) for 3 d at 37° C. To ensure that all pores are open, as in a typical active caries lesion, the resulting subsurface lesions were treated with 10 μL of 2% NaClO (incubation for 1 min), rinsed, and air-dried at room temperature.
• A 200 ppm (i.e., 200 μg/ml) solution of P11-4 (SEQ ID NO: 2), spiked with 10 ppm ATTO647-P11-4 (fluorescence labelled P11-4 (SEQ ID NO: 6): Ac-QQRFEWEFEQQSGSGC-(ATTO647)-NH2), i.e., 1:20, in 25 mM TRIS buffer was prepared at different pH, in particular, at 8.4 or 8.5 or 6.3, 6.5 or 6.8) • As specified in the table below, tooth were optionally pretreated, e.g., by incubation in human saliva for one day (about 24 hours), optionally followed by 5 min sonication (258 hz with a sonic toothbrush, Sonicare Diamond Clean® (Philips)) or by immersion in 2% NaClO for 1 min. • Tooth were immersed in the P11-4 solution for a defined period of time, 1, 2 or 5 min, and then removed and washed in water for 10 min or in remineralization buffer (2 mM Ca(NO3), 1.2 mM KHPO4, and 60 mM Tris/HCl, pH adjusted to 7.4 with 1 M KOH) for 4 days and/or 6 days. • Confocal assessment after 1, 2 or 5 min incubation was carried out while the teeth were in P11-4 solution, and optionally, after washing in water or in remineralization buffer after 10 min or 4 or 6 days. c) Confocal Microscopy
Samples were placed in a μ-slide I (ibidi, Martinsried) in dest. water and analyzed by a confocal laser microscope (Olympus IX81). The recorded stack of four 2-dimensional images each projected the lesion volume of 51.4 μm thickness, giving a total assessment depth of 205 μm (objective: UPLSAPO 20×/NA 0.75; helium-neon gas laser; excitation: 633 nm and emission: 668 nm). Images were analyzed by Olympus software (FluoView FV1000).

[3] = pH at which the peptide starts to undergo self-assembly; format: physicochemical; details: in solution
Source text: As used herein, the pH at which the self-assembling peptide starts to undergo self-assembly refers to the pH below which a significant extent of self-assembly of the peptides in solution is observed, which means that at least about 25%, about 30%, about 35%, about 40%, about 45%, about 50%, about 55%, about 60%, about 65%, about 70%, about 75%, about 80%, about 85%, about 90%, about 95%, about 99% or even about 100% of the peptides found in the dental care product are assembled. In a preferred embodiment, at least about 25% of the peptides found in the dental care product are assembled below the pH at which the peptide starts to undergo self-assembly.
Further, the skilled person is aware of numerous methods to determine the pH at which a peptide of the present invention will start self-assembly at a given ionic strength. Suitable methods are denoted e.g. in a publication by Aggeli et al. (2003, J Am Chem Soc, 125, 9619-9628).

[4] = self-assembling kinetic by measurements of elastic modulus G' (FIG. 6); format: physicochemical; details: 15 mg/ml; neutral pH; independent of ionic strength (buffers 140-165 mM); 0.1% strain, 37° C., 1 rad/second
Protocol: P11-4 was prepared at 15 mg/ml with different buffer compositions (see below) measured at 0.1% strain, 37° C. and a frequency of 1 rad/second. Self-assembly of peptide monomers to polymers takes more than 5 min independent of the used ionic strength at neutral pH. • Squares (top line of symbols)−NaCl: Tris (0.055 M)+NaCl, final ionic strength 142 mM; • Artificial saliva (second line of symbols from top): Tris, Ca(NO3)2, KH2PO4 (ratio 0.77:0.14:0.08), ionic strength 142 mM; • Dulbecco's Modified Eagle Medium (DMEM): NaCl, NaHCO3, KCl, CaCl2, MgSO4 (ratio 0.66:0.4:0.05:0.02:0.007), ionic strength 165 mM; • MgSO4: 0.055 M Tris+0.192 M MgSO4 0.14 M Ionic strength

QQRFEWEFEQQ [self-assembling peptide of 11 amino acids]
time to essentially complete self-assembly after injection of 0.1 M HCl [1]: about 30 min | peptide in the lesions after 4 days' incubation in remineralization buffer ([2]; pH8.5, FIG. 9Be): Lower but significant amounts | peptide in the lesions after 1 min incubation ([2]; pH8.5, teeth 10 and 1, FIG. 9Bb): already detectable | peptide in the lesions after 2 min or 5 min incubation ([2]; pH8.5, teeth 10 and 1, FIG. 9Bc, 9Bd): most peptide was detected | effect of incubation in remineralization buffer after contact with P11-4 containing solution ([2]; remineralization buffer versus water wash (tooth 10 versus tooth 2)): improves maintenance of the self-assembling peptide in the lesion | effect of pellicle formation by saliva on infiltration at pH 6.3-6.8 ([2]; teeth 3, 13): further decreased infiltration by peptide | peptide detectable in the lesions after incubation at pH 6.3-6.8 (polymerized form) ([2]; teeth 4, 12, 3, 13, versus incubation at pH 8.4 or 8.5): lower amounts of peptide | negative effect of pellicle after cleaning by sonication or NaClO ([2]; teeth ZR3 (sonication) and ZR2 (NaClO), after incubation with human saliva): could be compensated for | effect of sonification pretreatment before incubation on peptide in the lesions ([2]; tooth ZR1, pH 8.5): increased presence of peptide in the lesions | peptide detected after pellicle formation and cleaning by sonification ([2]; versus no pre-incubation with saliva): even higher amounts than without pre-incubation with saliva | pH at which the self-assembling peptides start to undergo self-assembly [3]: about 7.5 | time for self-assembly of peptide monomers to polymers [4]: more than 5 min
